Experimental data from the kinase profiling compilation of Christmann-Franck et al. (2016).

Assays:
Assay in all cases: radiometric filter-binding kinase assay
MARK4 (human) = MARK4 (human) (UniProt Q96L34)
EPHB3 (human) = EPHB3 (human) (UniProt P54753)
LCK (mouse) = conditions: accession and sequence are those of the human protein
MAP3K5 (human) = MAP3K5 (human) (UniProt Q99683)
SRC (human) = SRC (human) (UniProt P12931)
CSK (human) = CSK (human) (UniProt P41240)
EPHA4 (human) = EPHA4 (human) (UniProt P54764)
PAK7 (human) = PAK7 (human) (UniProt Q9P286)
MAP3K9 (human) = MAP3K9 (human) (UniProt P80192)
PRKCZ (human) = PRKCZ (human) (UniProt Q05513)
[1] = test system: AKT2 (human), P31751 [S474D]
RPS6KA5 KD1 KD2 (human) = RPS6KA5 KD1 KD2 (human) (UniProt O75582)
GSK3B (human) = GSK3B (human) (UniProt P49841); conditions: compound 1.0 µM
MAPK1 (human) = MAPK1 (human) (UniProt P28482)
HIPK1 (human) = HIPK1 (human) (UniProt Q86Z02)
MAPK13 (human) = MAPK13 (human) (UniProt O15264)
MAP3K1 (human) = MAP3K1 (human) (UniProt Q13233); conditions: compound 0.01 µM
SYK (human) = SYK (human) (UniProt P43405)
YES1 (human) = YES1 (human) (UniProt P07947)
CAMKK2 (human) = CAMKK2 (human) (UniProt Q96RR4)
PAK6 (human) = PAK6 (human) (UniProt Q9NQU5)
HIPK3 (human) = HIPK3 (human) (UniProt Q9H422)
CLK2 (human) = CLK2 (human) (UniProt P49760)
DAPK1 (human) = DAPK1 (human) (UniProt P53355)
INSR (human) = INSR (human) (UniProt P06213)
EPHB4 (human) = EPHB4 (human) (UniProt P54760)
ROCK2 (rat) = conditions: accession and sequence are those of the human protein
EPHB1 (human) = EPHB1 (human) (UniProt P54762)
PLK1 (human) = PLK1 (human) (UniProt P53350)
MAPK11 (human) = MAPK11 (human) (UniProt Q15759)
BRSK2 (human) = BRSK2 (human) (UniProt Q8IWQ3)
MAP3K7 TAB1 (human) = MAP3K7 TAB1 (human) (UniProt Q15750+O43318)
PKN2 (human) = PKN2 (human) (UniProt Q16513)

Sequence of YES1 (human) (P07947 whole entry, looked up): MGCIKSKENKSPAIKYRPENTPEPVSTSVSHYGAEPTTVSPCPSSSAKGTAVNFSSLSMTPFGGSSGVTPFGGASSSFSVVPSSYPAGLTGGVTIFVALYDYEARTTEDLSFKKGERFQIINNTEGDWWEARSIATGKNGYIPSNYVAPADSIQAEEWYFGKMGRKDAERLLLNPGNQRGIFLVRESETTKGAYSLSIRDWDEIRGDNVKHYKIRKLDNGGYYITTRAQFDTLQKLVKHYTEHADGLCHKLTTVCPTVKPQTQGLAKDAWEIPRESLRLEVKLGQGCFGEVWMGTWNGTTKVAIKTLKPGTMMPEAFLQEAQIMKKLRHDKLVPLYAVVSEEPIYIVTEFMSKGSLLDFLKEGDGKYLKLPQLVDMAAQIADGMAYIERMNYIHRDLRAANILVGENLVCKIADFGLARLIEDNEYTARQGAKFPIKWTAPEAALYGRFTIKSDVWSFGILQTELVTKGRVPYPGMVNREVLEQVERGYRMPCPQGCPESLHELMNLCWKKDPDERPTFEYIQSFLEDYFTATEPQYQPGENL
Sequence of SRC (human) (P12931 whole entry, looked up): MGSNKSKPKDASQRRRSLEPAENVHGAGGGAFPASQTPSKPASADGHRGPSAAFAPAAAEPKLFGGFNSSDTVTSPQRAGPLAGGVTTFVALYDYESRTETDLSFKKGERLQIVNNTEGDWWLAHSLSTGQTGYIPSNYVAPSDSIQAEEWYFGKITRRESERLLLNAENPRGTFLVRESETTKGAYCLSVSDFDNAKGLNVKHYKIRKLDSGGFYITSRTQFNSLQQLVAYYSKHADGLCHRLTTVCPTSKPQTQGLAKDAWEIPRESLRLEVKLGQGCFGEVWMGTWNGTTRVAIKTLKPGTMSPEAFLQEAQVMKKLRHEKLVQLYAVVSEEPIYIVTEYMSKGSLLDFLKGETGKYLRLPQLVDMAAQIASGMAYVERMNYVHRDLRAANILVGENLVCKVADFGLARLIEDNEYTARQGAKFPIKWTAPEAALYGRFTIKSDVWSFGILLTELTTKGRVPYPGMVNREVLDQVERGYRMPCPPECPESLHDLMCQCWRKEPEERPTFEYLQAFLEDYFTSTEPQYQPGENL
Sequence of MARK4 (human) (Q96L34 whole entry, looked up): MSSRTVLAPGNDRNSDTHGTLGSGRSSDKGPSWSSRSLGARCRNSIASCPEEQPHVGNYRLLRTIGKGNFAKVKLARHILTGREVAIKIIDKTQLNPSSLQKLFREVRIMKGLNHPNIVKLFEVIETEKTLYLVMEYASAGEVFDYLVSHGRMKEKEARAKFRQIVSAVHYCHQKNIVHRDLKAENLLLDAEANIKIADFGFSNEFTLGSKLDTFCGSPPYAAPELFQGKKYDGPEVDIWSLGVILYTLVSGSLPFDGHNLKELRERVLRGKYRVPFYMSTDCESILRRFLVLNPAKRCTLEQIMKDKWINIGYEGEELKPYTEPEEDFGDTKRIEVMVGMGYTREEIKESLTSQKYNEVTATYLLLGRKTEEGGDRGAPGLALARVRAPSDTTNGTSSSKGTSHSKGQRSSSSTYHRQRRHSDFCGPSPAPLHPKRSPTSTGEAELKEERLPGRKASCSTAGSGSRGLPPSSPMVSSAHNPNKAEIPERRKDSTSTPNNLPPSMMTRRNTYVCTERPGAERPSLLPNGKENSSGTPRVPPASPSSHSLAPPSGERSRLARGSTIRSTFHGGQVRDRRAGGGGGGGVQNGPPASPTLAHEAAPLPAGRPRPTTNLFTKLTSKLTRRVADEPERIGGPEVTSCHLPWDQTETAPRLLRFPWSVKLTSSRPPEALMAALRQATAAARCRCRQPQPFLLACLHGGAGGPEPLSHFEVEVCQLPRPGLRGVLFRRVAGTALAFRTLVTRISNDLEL
Sequence of HIPK3 (human) (Q9H422 whole entry, looked up): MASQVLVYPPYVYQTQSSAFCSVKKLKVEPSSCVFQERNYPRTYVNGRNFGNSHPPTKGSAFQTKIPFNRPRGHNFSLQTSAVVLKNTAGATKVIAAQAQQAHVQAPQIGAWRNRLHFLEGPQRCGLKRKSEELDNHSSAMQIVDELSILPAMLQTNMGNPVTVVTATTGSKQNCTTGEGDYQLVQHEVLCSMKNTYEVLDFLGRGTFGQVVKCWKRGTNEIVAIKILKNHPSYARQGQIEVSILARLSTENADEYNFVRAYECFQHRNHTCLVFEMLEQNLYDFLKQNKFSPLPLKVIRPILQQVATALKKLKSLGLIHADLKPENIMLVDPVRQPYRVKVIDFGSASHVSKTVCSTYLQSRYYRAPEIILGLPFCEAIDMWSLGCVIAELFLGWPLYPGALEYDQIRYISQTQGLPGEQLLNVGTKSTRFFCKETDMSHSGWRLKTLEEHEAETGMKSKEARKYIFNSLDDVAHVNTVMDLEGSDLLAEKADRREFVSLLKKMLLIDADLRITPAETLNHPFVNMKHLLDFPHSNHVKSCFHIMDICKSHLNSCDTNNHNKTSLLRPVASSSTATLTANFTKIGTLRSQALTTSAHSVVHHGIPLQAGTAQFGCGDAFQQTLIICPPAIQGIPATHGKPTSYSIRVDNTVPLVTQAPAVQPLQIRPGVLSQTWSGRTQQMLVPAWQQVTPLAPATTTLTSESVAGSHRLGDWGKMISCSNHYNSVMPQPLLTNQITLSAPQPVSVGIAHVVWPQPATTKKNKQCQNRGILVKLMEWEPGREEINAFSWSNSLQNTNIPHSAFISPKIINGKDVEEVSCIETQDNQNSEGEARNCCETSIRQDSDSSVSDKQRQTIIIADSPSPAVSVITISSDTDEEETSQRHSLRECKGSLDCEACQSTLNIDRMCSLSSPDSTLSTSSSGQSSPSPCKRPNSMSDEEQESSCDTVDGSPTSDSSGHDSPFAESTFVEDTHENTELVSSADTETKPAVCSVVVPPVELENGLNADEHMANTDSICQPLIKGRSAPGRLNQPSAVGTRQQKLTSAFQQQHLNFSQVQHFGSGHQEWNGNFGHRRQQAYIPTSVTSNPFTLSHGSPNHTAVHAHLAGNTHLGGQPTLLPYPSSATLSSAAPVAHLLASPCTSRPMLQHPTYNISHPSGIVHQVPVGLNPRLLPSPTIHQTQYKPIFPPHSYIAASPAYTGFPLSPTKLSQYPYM
Sequence of CLK2 (human) (P49760 whole entry, looked up): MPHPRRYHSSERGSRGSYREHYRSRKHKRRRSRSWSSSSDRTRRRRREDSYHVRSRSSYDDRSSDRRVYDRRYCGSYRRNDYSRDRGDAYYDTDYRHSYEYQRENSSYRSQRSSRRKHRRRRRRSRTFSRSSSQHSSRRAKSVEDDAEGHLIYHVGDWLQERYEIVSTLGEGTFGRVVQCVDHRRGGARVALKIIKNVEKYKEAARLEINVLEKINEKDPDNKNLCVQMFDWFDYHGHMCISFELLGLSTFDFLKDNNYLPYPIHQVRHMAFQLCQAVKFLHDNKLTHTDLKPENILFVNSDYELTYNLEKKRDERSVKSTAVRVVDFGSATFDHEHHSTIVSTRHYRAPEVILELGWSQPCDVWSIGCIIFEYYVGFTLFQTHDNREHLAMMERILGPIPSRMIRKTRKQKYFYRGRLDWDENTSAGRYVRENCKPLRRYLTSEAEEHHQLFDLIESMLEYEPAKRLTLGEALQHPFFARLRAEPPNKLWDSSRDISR
Sequence of PRKCZ (human) (Q05513 whole entry, looked up): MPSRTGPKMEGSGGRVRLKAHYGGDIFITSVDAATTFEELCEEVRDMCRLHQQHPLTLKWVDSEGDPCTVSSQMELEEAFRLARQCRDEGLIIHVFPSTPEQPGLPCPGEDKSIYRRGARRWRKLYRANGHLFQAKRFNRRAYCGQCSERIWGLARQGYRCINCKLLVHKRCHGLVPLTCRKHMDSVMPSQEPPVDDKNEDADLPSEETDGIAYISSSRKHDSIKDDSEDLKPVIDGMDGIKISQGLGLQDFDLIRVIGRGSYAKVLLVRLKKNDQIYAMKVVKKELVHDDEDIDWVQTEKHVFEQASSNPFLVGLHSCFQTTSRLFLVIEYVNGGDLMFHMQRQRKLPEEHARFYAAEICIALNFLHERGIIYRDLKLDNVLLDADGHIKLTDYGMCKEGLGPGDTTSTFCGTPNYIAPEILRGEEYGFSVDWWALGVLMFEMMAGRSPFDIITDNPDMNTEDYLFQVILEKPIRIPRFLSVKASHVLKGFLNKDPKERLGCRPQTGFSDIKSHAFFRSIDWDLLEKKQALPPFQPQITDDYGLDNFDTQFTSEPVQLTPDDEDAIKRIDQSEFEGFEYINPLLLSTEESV
Sequence of CAMKK2 (human) (Q96RR4 whole entry, looked up): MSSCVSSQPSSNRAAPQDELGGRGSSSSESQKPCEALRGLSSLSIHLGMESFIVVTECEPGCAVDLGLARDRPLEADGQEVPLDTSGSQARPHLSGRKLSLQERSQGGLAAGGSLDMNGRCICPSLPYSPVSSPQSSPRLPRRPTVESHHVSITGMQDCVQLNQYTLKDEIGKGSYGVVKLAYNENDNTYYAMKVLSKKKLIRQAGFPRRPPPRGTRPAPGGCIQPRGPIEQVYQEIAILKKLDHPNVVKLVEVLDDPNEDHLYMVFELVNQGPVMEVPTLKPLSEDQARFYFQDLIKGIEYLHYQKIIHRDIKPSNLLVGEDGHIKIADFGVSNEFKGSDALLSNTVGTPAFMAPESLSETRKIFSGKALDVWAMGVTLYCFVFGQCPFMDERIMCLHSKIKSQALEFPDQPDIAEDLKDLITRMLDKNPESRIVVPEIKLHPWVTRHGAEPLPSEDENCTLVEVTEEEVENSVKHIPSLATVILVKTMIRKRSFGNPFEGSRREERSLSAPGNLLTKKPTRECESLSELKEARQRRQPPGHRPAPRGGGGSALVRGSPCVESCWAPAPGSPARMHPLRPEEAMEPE

residual activity (MARK4 (human); compound 0.01 µM): 120%
residual activity (MARK4 (human); compound 0.1 µM): 101%
residual activity (MARK4 (human); compound 1.0 µM): 67%
residual activity (EPHB3 (human); compound 0.01 µM): 108%
residual activity (EPHB3 (human); compound 0.1 µM): 61%
residual activity (EPHB3 (human); compound 1.0 µM): 18%
residual activity (LCK (mouse); compound 0.01 µM): 63%
residual activity (LCK (mouse); compound 0.1 µM): 54%
residual activity (LCK (mouse); compound 1.0 µM): 47%
residual activity (MAP3K5 (human); compound 0.01 µM): 110%
residual activity (MAP3K5 (human); compound 0.1 µM): 119%
residual activity (SRC (human); compound 0.01 µM): 45%
residual activity (SRC (human); compound 0.1 µM): 9%
residual activity (SRC (human); compound 1.0 µM): 3%
residual activity (CSK (human); compound 0.01 µM): 119%
residual activity (CSK (human); compound 0.1 µM): 101%
residual activity (CSK (human); compound 1.0 µM): 38%
residual activity (EPHA4 (human); compound 0.01 µM): 71%
residual activity (EPHA4 (human); compound 0.1 µM): 12%
residual activity (EPHA4 (human); compound 1.0 µM): 6%
residual activity (PAK7 (human); compound 0.01 µM): 95%
residual activity (PAK7 (human); compound 0.1 µM): 91%
residual activity (PAK7 (human); compound 1.0 µM): 72%
residual activity (MAP3K9 (human); compound 0.01 µM): 101%
residual activity (MAP3K9 (human); compound 0.1 µM): 97%
residual activity (MAP3K9 (human); compound 1.0 µM): 42%
residual activity (PRKCZ (human); compound 0.01 µM): 97%
residual activity (PRKCZ (human); compound 0.1 µM): 104%
residual activity (PRKCZ (human); compound 1.0 µM): 102%
residual activity ([1]; compound 0.01 µM): 83%
residual activity ([1]; compound 0.1 µM): 83%
residual activity ([1]; compound 1.0 µM): 75%
residual activity (RPS6KA5 KD1 KD2 (human); compound 0.01 µM): 104%
residual activity (RPS6KA5 KD1 KD2 (human); compound 0.1 µM): 105%
residual activity (GSK3B (human)): 88%
residual activity (MAPK1 (human); compound 0.01 µM): 103%
residual activity (MAPK1 (human); compound 0.1 µM): 110%
residual activity (MAPK1 (human); compound 1.0 µM): 109%
residual activity (HIPK1 (human); compound 0.01 µM): 69%
residual activity (HIPK1 (human); compound 0.1 µM): 60%
residual activity (HIPK1 (human); compound 1.0 µM): 56%
residual activity (MAPK13 (human); compound 0.01 µM): 102%
residual activity (MAPK13 (human); compound 0.1 µM): 97%
residual activity (MAPK13 (human); compound 1.0 µM): 98%
residual activity (MAP3K1 (human)): 94%
residual activity (SYK (human); compound 0.01 µM): 112%
residual activity (SYK (human); compound 0.1 µM): 104%
residual activity (SYK (human); compound 1.0 µM): 100%
residual activity (YES1 (human); compound 0.01 µM): 34%
residual activity (YES1 (human); compound 0.1 µM): 11%
residual activity (YES1 (human); compound 1.0 µM): 8%
residual activity (CAMKK2 (human); compound 0.01 µM): 105%
residual activity (CAMKK2 (human); compound 0.1 µM): 102%
residual activity (CAMKK2 (human); compound 1.0 µM): 89%
residual activity (PAK6 (human); compound 0.01 µM): 94%
residual activity (PAK6 (human); compound 0.1 µM): 101%
residual activity (PAK6 (human); compound 1.0 µM): 88%
residual activity (HIPK3 (human); compound 0.01 µM): 80%
residual activity (HIPK3 (human); compound 0.1 µM): 86%
residual activity (HIPK3 (human); compound 1.0 µM): 74%
residual activity (CLK2 (human); compound 0.01 µM): 97%
residual activity (CLK2 (human); compound 0.1 µM): 100%
residual activity (CLK2 (human); compound 1.0 µM): 108%
residual activity (DAPK1 (human); compound 0.1 µM): 88%
residual activity (DAPK1 (human); compound 1.0 µM): 96%
residual activity (INSR (human); compound 0.01 µM): 115%
residual activity (INSR (human); compound 0.1 µM): 106%
residual activity (INSR (human); compound 1.0 µM): 106%
residual activity (EPHB4 (human); compound 0.01 µM): 110%
residual activity (EPHB4 (human); compound 0.1 µM): 80%
residual activity (EPHB4 (human); compound 1.0 µM): 5%
residual activity (ROCK2 (rat); compound 0.01 µM): 90%
residual activity (ROCK2 (rat); compound 1.0 µM): 68%
residual activity (EPHB1 (human); compound 0.01 µM): 62%
residual activity (EPHB1 (human); compound 0.1 µM): 49%
residual activity (EPHB1 (human); compound 1.0 µM): 2%
residual activity (PLK1 (human); compound 0.01 µM): 98%
residual activity (PLK1 (human); compound 0.1 µM): 102%
residual activity (PLK1 (human); compound 1.0 µM): 97%
residual activity (MAPK11 (human); compound 0.01 µM): 89%
residual activity (MAPK11 (human); compound 0.1 µM): 42%
residual activity (MAPK11 (human); compound 1.0 µM): 19%
residual activity (BRSK2 (human); compound 0.1 µM): 97%
residual activity (BRSK2 (human); compound 1.0 µM): 88%
residual activity (MAP3K7 TAB1 (human); compound 0.1 µM): 110%
residual activity (MAP3K7 TAB1 (human); compound 1.0 µM): 84%
residual activity (PKN2 (human); compound 0.1 µM): 99%
residual activity (PKN2 (human); compound 1.0 µM): 90%
Compound: COc1ccc(N(C(=O)Nc2c(C)cccc2C)c2cc(Nc3ccc(N4CCN(C)CC4)cc3)ncn2)c(OC)c1
